{"source": "paper PMC8881610", "about": "(Nature Communications, 2022)", "key": {"[1]": {"biological_target": "T1, GLP-1R (Homo sapiens, UniProt P43220)", "T1 sequence (P43220 24-463)": "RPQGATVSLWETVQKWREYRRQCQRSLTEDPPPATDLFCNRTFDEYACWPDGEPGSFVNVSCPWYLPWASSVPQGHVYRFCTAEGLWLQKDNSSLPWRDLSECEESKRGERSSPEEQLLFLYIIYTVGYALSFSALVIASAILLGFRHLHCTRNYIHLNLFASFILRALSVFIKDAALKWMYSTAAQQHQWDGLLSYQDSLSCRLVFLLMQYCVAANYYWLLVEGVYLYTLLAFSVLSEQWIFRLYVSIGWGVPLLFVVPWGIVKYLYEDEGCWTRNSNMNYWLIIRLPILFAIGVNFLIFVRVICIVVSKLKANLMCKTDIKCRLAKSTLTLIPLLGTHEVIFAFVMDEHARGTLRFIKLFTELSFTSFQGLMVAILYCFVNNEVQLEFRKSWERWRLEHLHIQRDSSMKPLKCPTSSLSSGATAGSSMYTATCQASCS", "assay": "Whole-cell binding assay, competition with 125I-GLP-1(7-36)NH2", "set-up": "Flag; expressed in transfected cells", "settings": "CHO-K1", "procedure": "(§1) Human embryonic kidney 293 cells containing SV40 large T-antigen (HEK293T) were cultured in DMEM (Gibco) supplemented with 10% (v/v) fetal bovine serum (FBS, Gibco), 1 mM sodium pyruvate (Gibco) and 100 units/mL penicillin and 100 μg/mL streptomycin at 37 °C in 5% CO2. Chinese hamster ovary (CHO-K1) cells were cultured in F-12 (Gibco) containing 10% FBS, 100 units/mL penicillin and 100 μg/mL streptomycin at 37 °C in 5% CO2. For cAMP and receptor expression assays, HEK293T cells were seeded into 6-well cell culture plates at a density of 7 × 10^5 cells per well. After overnight incubation, cells were transfected with GIPR, GLP-1R or GCGR construct using Lipofectamine 2000 or Lipofectamine 3000 transfection reagent (Invitrogen). For whole-cell binding assay, CHO-K1 cells were seeded into 96-well fibronectin-treated cell culture plates at a density of 3 × 10^4 cells per well. After overnight incubation, cells were transfected with GIPR, GLP-1R or GCGR construct using Lipofectamine 2000 transfection reagent (Invitrogen). Following 24 h culturing, the transfected cells were ready for use.\nFor GLP-1R and GCGR, CHO-K1 cells (30,000 cells/well) were seeded into Isoplate-96 plates and incubated for 24 h at 37 °C in 5% CO2. The WT or mutant constructs were transiently transfected using Lipofectamine 2000 transfection reagent as previous described. They were then washed twice using F-12 with 0.1% BSA or 0.1% casein, 33 mM HEPES, and incubated for 2 h at 37 °C. […] Cells were washed three times with ice-cold PBS and lysed in PBS with 1% Triton X-100, 20 mM Tris-HCl. After addition of scintillation cocktail (PerkinElmer), radioactivity (CPM) was counted on a MicroBeta^2 microplate counter (PerkinElmer). Data were normalized to the WT response and analyzed using three-parameter logistic equation."}, "[2]": {"biological_target": "T1, GLP-1R", "assay": "cAMP accumulation assay, GLP-1R WT, mutant or modified constructs", "format": "cell-based", "set-up": "Flag; expressed in transfected cells; host or cells: HEK293T", "settings": "HEK293T; for Emax: HEK-293T", "procedure": "as §1\nThe human GLP-1R was modified with its native signal sequence (M1-P23) replaced by the HA signal peptide to facilitate receptor expression. To obtain a GLP-1R–Gs complex with good homogeneity and stability, we used the NanoBiT tethering strategy, in which the C terminus of GLP-1R was directly attached to LgBiT subunit followed by a TEV protease cleavage site and a double MBP tag. […] The constructs were cloned into both pcDNA3.1 and pFastBac vectors for functional assays in mammalian cells and protein expression in insect cells, respectively. Other constructs including the full-length and various mutants of human GLP-1R were cloned into pcDNA3.1 vector for cAMP accumulation and whole-cell binding assays.\nFor GIPR, GLP-1R and GCGR, multi-targeting agonist stimulated cAMP accumulation was measured by a LANCE Ultra cAMP kit (PerkinElmer). After 24 h culture, the transfected cells were seeded into 384-well microtiter plates at a density of 3,000 cells per well in HBSS supplemented with 5 mM HEPES, 0.1% (w/v) BSA or 0.1% (w/v) casein and 0.5 mM 3-isobutyl-1-methylxanthine. The cells were stimulated with different concentrations of peptide agonists for 40 min at RT. Eu-cAMP tracer and ULight^TM-anti-cAMP were then diluted by cAMP detection buffer and added to the plates separately to terminate the reaction. Plates were incubated at RT for 1 h and the fluorescence intensity measured at 620 nm and […] by an EnVision multilabel plate reader (PerkinElmer)."}, "[3]": {"biological_target": "T2, GIPR (Homo sapiens, UniProt P48546)", "T2 sequence (P48546 22-466)": "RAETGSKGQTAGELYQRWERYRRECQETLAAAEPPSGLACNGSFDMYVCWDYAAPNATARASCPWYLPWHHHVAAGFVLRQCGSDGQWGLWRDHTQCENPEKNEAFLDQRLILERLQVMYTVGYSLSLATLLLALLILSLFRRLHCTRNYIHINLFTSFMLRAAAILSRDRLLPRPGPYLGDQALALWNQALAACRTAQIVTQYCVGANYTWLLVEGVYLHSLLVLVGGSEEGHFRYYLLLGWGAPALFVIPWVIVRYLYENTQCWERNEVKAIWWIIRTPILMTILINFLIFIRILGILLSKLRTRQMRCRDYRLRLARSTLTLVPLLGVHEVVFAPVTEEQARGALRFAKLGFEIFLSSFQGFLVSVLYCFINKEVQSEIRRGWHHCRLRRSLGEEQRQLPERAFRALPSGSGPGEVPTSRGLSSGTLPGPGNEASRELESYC", "assay": "β-arrestin 2 recruitment (BRET)", "format": "cell-based", "set-up": "expressed in transfected cells; host or cells: HEK293T", "settings": "GIPR WT, HEK293T; for Emax: HEK-293T", "procedure": "After cells were grown for 24 h, transiently transfected cells were then seeded onto poly-D-lysine coated 96-well culture plates (50,000 cells/well) in DMEM with 10% FBS. Cells were grown for 20 h before incubation in assay buffer (HBSS supplemented with 10 mM HEPES, 0.1% BSA or 0.1% casein, pH 7.4) for 30 min at 37 °C. Coelentrazine-h (Yeasen Biotech) was added to a final concentration of 5 μM for 5 min before bioluminescence resonance energy transfer (BRET) readings were made using an EnVision plate reader (PerkinElmer). BRET baseline measurements were collected for 15 cycles prior to ligand addition. After which, BRET was measured for 55 cycles."}}, "note": "Read-outs that look alike come from different tables or passages of the source."}
{"smiles": "CC[C@H](C)[C@H](NC(=O)[C@H](CC(C)C)NC(=O)[C@H](Cc1c[nH]c2ccccc12)NC(=O)[C@H](CCC(N)=O)NC(=O)[C@@H](NC(=O)[C@H](Cc1ccccc1)NC(=O)[C@H](C)NC(=O)[C@H](CCCCN)NC(=O)[C@H](CCC(N)=O)NC(=O)[C@H](C)NC(=O)[C@@H](NC(=O)[C@H](CCCCN)NC(=O)[C@H](CC(=O)O)NC(=O)[C@H](CC(C)C)NC(=O)C(C)(C)NC(=O)[C@@H](NC(=O)[C@H](CO)NC(=O)[C@H](Cc1ccc(O)cc1)NC(=O)[C@H](CC(=O)O)NC(=O)[C@H](CO)NC(=O)[C@@H](NC(=O)[C@H](Cc1ccccc1)NC(=O)[C@@H](NC(=O)CNC(=O)[C@H](CCC(=O)O)NC(=O)C(C)(C)NC(=O)[C@@H](N)Cc1ccc(O)cc1)[C@@H](C)O)[C@@H](C)O)[C@@H](C)CC)[C@@H](C)CC)C(C)C)C(=O)N[C@@H](C)C(=O)NCC(=O)NCC(=O)N1CCC[C@H]1C(=O)N[C@@H](CO)C(=O)N[C@@H](CO)C(=O)NCC(=O)N[C@@H](C)C(=O)N1CCC[C@H]1C(=O)N1CCC[C@H]1C(=O)N1CCC[C@H]1C(=O)N[C@@H](CO)C(N)=O", "note": "[Non-acylated tirzepatide]", "values": [{"measurement": "binding Span", "setting": "[1]; GLP-1R WT, 0.1% casein", "value": "80.39 ± 9.18"}, {"measurement": "IC50", "setting": "[1]; GLP-1R WT, 0.1% casein, read-out: Binding pIC50 (converted)", "value": 24.5, "unit": "nM"}, {"measurement": "binding Span", "setting": "[1]; GLP-1R, effect of tirzepatide acylation", "value": "81.36 ± 4.36 % WT or Tirzepatide"}, {"measurement": "IC50", "setting": "[1]; GLP-1R, effect of tirzepatide acylation, read-out: binding pIC50 (converted)", "value": 12.3, "unit": "nM"}, {"measurement": "EC50", "setting": "[2]; GLP-1R WT, 0.1% BSA, read-out: cAMP accumulation pEC50 (converted)", "value": 0.00468, "unit": "nM"}, {"measurement": "EC50", "setting": "[2]; GLP-1R, effect of tirzepatide acylation, read-out: cAMP pEC50 (converted)", "value": 0.00794, "unit": "nM"}, {"measurement": "Emax", "setting": "[2]; GLP-1R WT, 0.1% BSA, read-out: cAMP accumulation Emax", "value": "99.1 ± 1.65", "unit": "%"}, {"measurement": "Emax", "setting": "[2]; GLP-1R WT, 0.1% casein, read-out: cAMP accumulation Emax", "value": "98.76 ± 0.97", "unit": "%"}, {"measurement": "Emax", "setting": "[2]; GLP-1R, effect of tirzepatide acylation, read-out: cAMP Emax", "value": "100 ± 0.88", "unit": "%"}, {"measurement": "EC50", "setting": "[3]; 0.1% casein, read-out: β-arrestin 2 recruitment pEC50 (converted)", "value": 14.8, "unit": "nM"}, {"measurement": "Emax", "setting": "[3]; 0.1% BSA", "value": "57.1 ± 1.97", "unit": "%"}, {"measurement": "Emax", "setting": "[3]; 0.1% casein", "value": "59.8 ± 1.01", "unit": "%"}]}
